Laboratory results published in paper PMC5931576, “Allosteric modulation of the farnesoid X receptor by a small molecule” (Scientific Reports, 2018).
Like-named read-outs stand apart in the source and are kept apart here. Each block holds one molecule with its values, some of them ahead of it.

Assays:
PKA = system: PKA; set-up: method as in doi:10.1016/S0960-894X(96)00601-4, PMID 11162439; conditions: cited from earlier work
CaMKK2 = assay: Kinase inhibition assay (radiometric or HTRF); type: biochemical; conditions: 20 µM
AMPKα1 = assay: Kinase inhibition assay (radiometric or HTRF); type: biochemical; conditions: 20 µM
RXRα = system: T1, RXRα; assay: Gal4-DBD-RXRα-LBD hybrid reporter gene assay; type: cell-based, human
T1 construct: expressed in transfected cells; host or cells: HEK293T
From the text: The Gal4-fusion receptor plasmids pFA-CMV-hPPARα-LBD[34], pFA-CMV-hPPARγ-LBD[34], pFA-CMV-hPPARδ-LBD[34], pFA-CMV-hLXRα-LBD[35], pFA-CMV-hLXRβ-LBD[35], pFA-CMV-hRXRα-LBD[36], pFA-CMV-hRXRβ-LBD[36], pFA-CMV-hRXRγ-LBD[36], pFA-CMV-hRARα-LBD[36], pFA-CMV-hRARβ-LBD[36], pFA-CMV-hRARγ-LBD[36], pFA-CMV-hVDR-LBD[36] and pFA-CMV-hCAR-LBD[36] coding for the hinge region and ligand binding domain (LBD) of the canonical isoform of the respective nuclear receptor have been reported previously. pFR-Luc (Stratagene) was used as reporter plasmid and pRL-SV40 (Promega) for normalization of transfection efficiency and cell growth.
HEK293T cells were grown in DMEM high glucose, supplemented with 10% FCS, sodium pyruvate (1 mM), penicillin (100 U/mL) and streptomycin (100 μg/mL) at 37 °C and 5% CO2. The day before transfection, HEK293T cells were seeded in 96-well plates (2.5·10^4 cells/well). Before transfection, medium was changed to Opti-MEM without supplements. Transient transfection was carried out using Lipofectamine LTX reagent (Invitrogen) according to the manufacturer’s protocol with pFR-Luc (Stratagene), pRL-SV40 (Promega) and pFA-CMV-hNR-LBD. […] Luminescence was measured with an Infinite M200 luminometer (Tecan Deutschland GmbH) or a Tecan Spark 10 M luminometer (Tecan). […]

TGR5 = system: T2, TGR5; assay: TGR5 assay (Eurofins); type: cell-based; conditions: 1 and 10 µM
T2 construct: Eurofins (Brussels, Belgium)

c-Kit = assay: Kinase inhibition assay (radiometric or HTRF); type: biochemical
AMPKα2 = assay: Kinase inhibition assay (radiometric or HTRF); type: biochemical; conditions: 20 µM
[1] = Metabolism assay (liver microsomes); type: in vitro ADME, Sprague−Dawley rats; conditions: rat liver microsomes, 10 μM
Method: (§1) In vitro biological evaluation […]
MgCl2). After 5 min, the reaction was started by the addition of 13 μL of microsome mix from the liver of Sprague−Dawley rats (Invitrogen; 20 mg protein/mL in 0.1 M phosphate buffer) in a shaking water bath at 37 °C.
The reaction was stopped by addition of 250 μL of ice-cold methanol at 0, 15, 30 and 60 min. The samples were diluted with 250 μL of DMSO and centrifuged at 10000 g for 5 min at 4 °C. The supernatants were analyzed and test compound was quantified by HPLC: mobile phase: MeOH 83%/H2O 17%/formic acid 0.1%; flow-rate:
1 mL/min; stationary phase: MultoHigh Phenyl phase, 5 μm, 250 × 4, precolumn, phenyl, 5 μm, 20 × 4; detection wavelength: 330 and 254 nm; injection volume: 50 μL. Control samples were performed to check the stability of 4 or 16 in the reaction mixture: first control was without NADPH, which is needed for the enzymatic activity of the microsomes, second control was with inactivated microsomes (incubated for 20 min at 90 °C), third control was […]
quantified by an external calibration curve, where data are expressed as means ± SEM of single determinations […]
obtained in three independent experiments. […]
as mean percent of remaining compound ± SEM; n=3): 4: 0 min: 100 ± 0%, 15 min: 86 ± 3%, 30 min: 74 ± 1%,

TAK1 = assay: Kinase inhibition assay (radiometric or HTRF); type: biochemical; conditions: 20 µM
HepG2 cells = assay: WST-1 assay; type: cell-based; conditions: 48 h (or 24 h)
Method: as §1
WST-1 assay (Roche Diagnostics International AG, Rotkreuz, Schweiz) was performed according to manufacturer’s protocol and as described previously. In brief, HepG2 cells were seeded in DMEM high glucose, supplemented with SP (1 mM), penicillin (100 U/mL), streptomycin (100 µg/mL) and 10% FCS in 96-well plates (3∙10^4 cells/well). After 24 h, medium was changed to DMEM high glucose, supplemented with penicillin (100 U/mL), streptomycin (100 µg/mL) and 1% charcoal stripped FCS and cells were incubated with 4 or 16 (final […]
and DMEM/1% DMSO as negative controls. After 48 h (or 24 h), WST reagent (Roche Diagnostics International AG) was added to each well according to manufacturer’s instructions. After 45 min incubation, absorption (450 nm/ reference: 620 nm) was determined with a Tecan Infinite M200 luminometer (Tecan Deutschland GmbH). Each experiment was repeated at least three times in triplicates. […]

PDGF-Rα = assay: Kinase inhibition assay (radiometric or HTRF); type: biochemical
human FXR = molecular target: T3, human FXR (Homo sapiens, UniProt Q96RI1); assay: Full-length FXR transactivation (reporter gene) assay in HeLa cells; type: cell-based; conditions: for Emax: HeLa; for EC50: read-out: hFXR: EC50; for FXR modulatory potency in words: SAR discussion
T3 construct: expressed in transfected cells; host or cells: HeLa
T3 sequence (Q96RI1 1-486): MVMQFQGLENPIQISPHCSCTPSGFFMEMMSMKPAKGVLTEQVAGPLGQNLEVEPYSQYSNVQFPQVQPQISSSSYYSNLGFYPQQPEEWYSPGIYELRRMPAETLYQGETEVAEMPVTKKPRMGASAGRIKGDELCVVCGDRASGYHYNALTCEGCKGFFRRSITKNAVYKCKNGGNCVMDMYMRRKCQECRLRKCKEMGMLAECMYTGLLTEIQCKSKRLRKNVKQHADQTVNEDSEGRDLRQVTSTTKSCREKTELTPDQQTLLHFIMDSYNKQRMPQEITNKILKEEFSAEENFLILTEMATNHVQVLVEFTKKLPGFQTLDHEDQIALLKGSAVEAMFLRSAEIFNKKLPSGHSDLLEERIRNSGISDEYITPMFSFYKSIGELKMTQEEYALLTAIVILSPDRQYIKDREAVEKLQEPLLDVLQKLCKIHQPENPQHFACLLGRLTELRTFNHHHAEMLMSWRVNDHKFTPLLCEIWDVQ
T3 sequence (P19793 1-462 partner): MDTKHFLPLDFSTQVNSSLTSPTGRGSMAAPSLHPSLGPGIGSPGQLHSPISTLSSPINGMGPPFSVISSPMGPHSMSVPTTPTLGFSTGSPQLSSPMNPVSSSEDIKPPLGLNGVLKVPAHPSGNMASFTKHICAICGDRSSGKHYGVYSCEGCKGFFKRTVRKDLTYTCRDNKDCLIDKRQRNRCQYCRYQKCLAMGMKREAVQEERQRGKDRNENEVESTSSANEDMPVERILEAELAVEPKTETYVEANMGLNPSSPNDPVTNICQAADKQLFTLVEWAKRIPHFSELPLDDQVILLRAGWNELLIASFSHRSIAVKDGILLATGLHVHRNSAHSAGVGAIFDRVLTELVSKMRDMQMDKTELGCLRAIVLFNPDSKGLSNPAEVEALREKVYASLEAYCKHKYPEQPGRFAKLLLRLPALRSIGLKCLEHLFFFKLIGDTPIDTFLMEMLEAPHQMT

[2] = full-length reporter gene assay, HeLa cells, mean ± SEM, n ≥ 3
[3] = full-length reporter gene assay

Inhibition of CaMKK2 (CaMKK2): slight inhibition
Inhibition of AMPKα1 (AMPKα1): did not markedly inhibit
RXR agonistic activity (activation of RXRα-Gal4 chimera receptor) (RXRα): neither activated
Inhibition of c-Kit (c-Kit): potent inhibitor
Inhibition of AMPKα2 (AMPKα2): did not markedly inhibit
mean percent of remaining compound ([1]; 0 min): 100 ± 0%
mean percent of remaining compound ([1]; 15 min): 86 ± 3%
mean percent of remaining compound ([1]; 30 min): 74 ± 1%
mean percent of remaining compound ([1]; 60 min): 61 ± 3%
Inhibition of TAK1 (TAK1): slight inhibition
WST-1, mean percent of untreated control (HepG2 cells; HepG2, 0.1 µM): 98 ± 9%
WST-1, mean percent of untreated control (HepG2 cells; HepG2, 1 µM): 80 ± 9%
WST-1, mean percent of untreated control (HepG2 cells; HepG2, 10 µM): 78 ± 3%
WST-1, mean percent of untreated control (HepG2 cells; HepG2, 50 µM): 65 ± 1%
WST-1, mean percent of untreated control (HepG2 cells; HepG2, 4 (10 µM) + 1 (50 µM)): 77 ± 7%
Inhibition of PDGF-Rα (PDGF-Rα): potent inhibitor
SMILES: Cc1ccc(NC(=O)c2ccc(CN3CCN(C)CC3)cc2)cc1Nc1nccc(-c2cccnc2)n1 [compound 4, imatinib, reference compound]
Activity on PKA (PKA): inactive
TGR5 modulation (agonistic or antagonistic activity) (TGR5): no agonistic or antagonistic activity

SMILES: Cc1ccc(NC(=O)c2ccncc2)cc1Nc1nccc(-c2cccnc2)n1 [compound 10]
Emax (human FXR; read-out: hFXR: max. rel. act.): 11.7%
EC50 (human FXR; [2]): 3500 ± 200 nM

SMILES: Cc1ccc(NC(=O)c2ccc(-c3ccccc3)cc2)cc1Nc1nccc(-c2cccnc2)n1 [compound 14]
Emax (human FXR; read-out: hFXR: max. rel. act.): 7.1%
EC50 (human FXR; [2]): 130 ± 20 nM

SMILES: CS(=O)(=O)O.CS(=O)(=O)O.CS(=O)(=O)O.CS(=O)(=O)O.Cc1ccc(NC(=O)c2ccccc2)cc1Nc1nccc(-c2cccnc2)n1.Cc1ccc(NC(=O)c2ccccc2)cc1Nc1nccc(-c2cccnc2)n1.O [compound 8]
Emax (human FXR; read-out: hFXR: max. rel. act.): 9%
EC50 (human FXR; [2]): 450 ± 20 nM
FXR modulatory potency in words (human FXR; [3]): submicromolar

SMILES: Cc1ccc(NC(=O)c2ccc(C(C)(C)C)cc2)cc1Nc1nccc(-c2cccnc2)n1 [compound 13]
Emax (human FXR; read-out: hFXR: max. rel. act.): 8.6%
EC50 (human FXR; [2]): 580 ± 70 nM

SMILES: CC(=O)Nc1ccc(C)c(Nc2nccc(-c3cccnc3)n2)c1.CC(=O)Nc1ccc(C)c(Nc2nccc(-c3cccnc3)n2)c1.CS(=O)(=O)O.CS(=O)(=O)O.CS(=O)(=O)O.CS(=O)(=O)O.O [compound 7]
hFXR: EC50 (human FXR; [2]): inactive

Emax (human FXR; relative to FXR full agonist 3 at 3 µM, mean ± SEM, n ≥ 3, read-out: hFXR: max. rel. act. (converted)): 8.4%
EC50 (human FXR; [2]): 1000 ± 100 nM
SMILES: COc1ccc(C(=O)Nc2ccc(C)c(Nc3nccc(-c4cccnc4)n3)c2)cc1 [compound 15]

SMILES: CS(=O)(=O)O.CS(=O)(=O)O.CS(=O)(=O)O.CS(=O)(=O)O.Cc1ccc(NC(=O)c2ccc3ccccc3c2)cc1Nc1nccc(-c2cccnc2)n1.Cc1ccc(NC(=O)c2ccc3ccccc3c2)cc1Nc1nccc(-c2cccnc2)n1.O.O.O [compound 9]
Emax (human FXR; read-out: hFXR: max. rel. act.): 7.1%
EC50 (human FXR; [2]): 460 ± 10 nM
FXR modulatory potency in words (human FXR; [3]): submicromolar

SMILES: CCc1ccc(C(=O)Nc2ccc(C)c(Nc3nccc(-c4cccnc4)n3)c2)cc1.CS(=O)(=O)O.CS(=O)(=O)O.O [compound 12]
Emax (human FXR; read-out: hFXR: max. rel. act.): 7.9%
EC50 (human FXR; [2]): 6.4 ± 0.4 nM
FXR modulatory potency in words (human FXR; [3]): single-digit nanomolar activity

SMILES: Cc1ccc(N)cc1Nc1nccc(-c2cccnc2)n1 [compound 17, reference compound]
Emax (human FXR; read-out: hFXR: max. rel. act.): 9.2%
EC50 (human FXR; [2]): 17800 ± 1100 nM

SMILES: Cc1ccc(C(=O)Nc2ccc(C)c(Nc3nccc(-c4cccnc4)n3)c2)cc1 [compound 11]
Emax (human FXR; read-out: hFXR: max. rel. act.): 8.1%
EC50 (human FXR; [2]): 51 ± 1 nM

WST-1, mean percent of untreated control (HepG2 cells; HepG2, 50 µM): 88 ± 5%
SMILES: C[C@H](CCC(=O)O)[C@H]1CC[C@H]2[C@@H]3[C@H](O)C[C@@H]4C[C@H](O)CC[C@]4(C)[C@H]3CC[C@]12C [compound 1, chenodeoxycholic acid, reference compound]
